This note sets out measurements from US8642594B2, “Substituted thieno[2,3-d]pyrimidines as HSP90 inhibitors” (Vernalis (R&D) Limited, priority 2003, dated 2014).

Structures are written as SMILES.

For one test, the target named is T1, Human full-length Hsp90 (Homo sapiens, UniProt P08238).
T1 construct: E. coli expressed human full-length HSP90 protein, purified >95%; made in house; host or cells: E. coli
T1 sequence (P08238 whole entry): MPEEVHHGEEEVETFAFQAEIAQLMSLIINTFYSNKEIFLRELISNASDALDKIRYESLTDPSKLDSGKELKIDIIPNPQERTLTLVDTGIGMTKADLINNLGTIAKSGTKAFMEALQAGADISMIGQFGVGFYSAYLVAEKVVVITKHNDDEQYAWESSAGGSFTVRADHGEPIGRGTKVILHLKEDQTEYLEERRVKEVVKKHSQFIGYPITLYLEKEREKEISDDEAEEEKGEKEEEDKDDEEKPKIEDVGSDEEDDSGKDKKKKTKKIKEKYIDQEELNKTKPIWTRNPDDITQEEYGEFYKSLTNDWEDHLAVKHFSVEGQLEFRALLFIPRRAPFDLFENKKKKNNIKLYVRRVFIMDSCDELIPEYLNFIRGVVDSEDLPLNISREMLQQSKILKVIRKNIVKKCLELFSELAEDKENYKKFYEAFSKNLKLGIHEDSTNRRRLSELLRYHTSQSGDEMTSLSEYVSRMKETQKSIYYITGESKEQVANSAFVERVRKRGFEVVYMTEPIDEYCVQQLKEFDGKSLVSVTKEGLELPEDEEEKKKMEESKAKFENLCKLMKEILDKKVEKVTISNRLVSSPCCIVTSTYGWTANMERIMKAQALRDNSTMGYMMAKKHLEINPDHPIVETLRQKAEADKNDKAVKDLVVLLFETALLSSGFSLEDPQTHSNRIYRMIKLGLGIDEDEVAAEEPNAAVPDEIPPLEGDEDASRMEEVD
As to the kind of experiment: Fluorescence polarization assay (competitive binding to HSP90, probe RBT0045864-FAM).
Conditions: not given
The method, then:
Fluorescence Polarization Assay
Fluorescence polarization {also known as fluorescence anisotropy} measures the rotation of a fluorescing species in solution, where the larger molecule the more polarized the fluorescence emission. When the fluorophore is excited with polarized light, the emitted light is also polarized. The molecular size is proportional to the polarization of the fluorescence emission.
The fluoroscein-labelled probe—RBT0045864-FAM—
Test compound is added to the assay plate, left to equilibrate and the anisotropy measured again. Any change in anisotropy is due to competitive binding of compound to HSP90, thereby releasing probe.
Stored at room temperature. • 3) BSA (bovine serum albumen) 10 mg/ml (New England Biolabs #B9001S) • 4) 20 mM probe in 100% DMSO stock concentration. Stored in the dark at RT. Working concentration is 200 nM diluted in AR water and stored at 4° C. […] Protocol • 1) Add 100 μl 1× buffer to wells 11A and 12A (=FP BLNK) • 2) Prepare assay mix—all reagents are kept on ice with a lid on the bucket as the probe is light-sensitive.
This gives 2.5 mM {50×} stock cpd—assuming cpds 20 mM. • 4) Repeat for wells A2 to A10. Control in columns 11 and 12. • 5) Transfer 5 μl from row A to row B—not column 12. Mix well. • 6) Transfer 5 μl from row B to row C. […] Add 2 μl of 100 mM standard cpd to wells B12-H12 {is positive control} • 13) The Z′ factor is calculated from zero controls and positive wells.
On the technique in general: Polarisation of emitted light reports the rotation of a fluorescent probe.
Molecule `CCNC(=O)c1cc2c(-c3cc(OCCN(CC)CC)c(Cl)cc3Cl)nc(N)nc2s1` [Example 235, 2-Amino-4-[2,4-dichloro-5-(2-diethylamino-ethoxy)-phenyl]-thieno[2,3-d]pyrimidine-6-carboxylic acid ethyl amide] came in with an IC50 of less than 10 µM.

As for `CCNC(=O)c1cc2c(-c3ccccc3)nc(N)nc2s1` [Example 43, 2-Amino-4-phenyl-thieno[2,3-d]pyrimidine-6-carboxylic acid ethylamide], the IC50 is less than 10 µM.

The test is the same for the next values; noted with them: fluorescence polarization assay, activity range; read-out: Hsp90 FP IC50.
Turning to `CC(C)CNC(=O)c1cc2c(-c3ccccc3)nc(N)nc2s1` [Example 52], the IC50 is greater than 10 µM.

As to `Nc1nc(-c2ccc(Cl)cc2Cl)c2cc(C(=O)Nc3ccc(S(=O)(=O)O)cc3)sc2n1` [Example 112], the 50% inhibitory concentration (IC50) was less than 10 µM.

Take `CCOC(=O)c1cc2c(-c3ccc(CN4CCCCC4)cc3)nc(N)nc2s1` [Example 33, 2-Amino-4-(4-piperidin-1-ylmethyl-phenyl)-thieno[2,3-d]pyrimidine-6-carboxylic acid ethyl ester]: the concentration for half-maximal inhibition (IC50) was greater than 10 µM.

Consider `CCNC(=O)c1cc2c(-c3ccc(C)cc3Cl)nc(N)nc2s1` [Example 152], for which the IC50 was less than 10 µM.

Take `NC(=O)CNC(=O)c1cc2c(-c3ccccc3)nc(N)nc2s1` [Example 71]: the IC50 was less than 10 µM.

Turning to `Nc1nc(-c2ccc(Cl)cc2Cl)c2cc(C(=O)NC3CCCC3)sc2n1` [Example 153], the half-maximal inhibitory concentration (IC50) is less than 10 µM.

For the molecule `CCOC(=O)c1cc2c(/C=C/c3ccc(F)cc3)nc(N)nc2s1` [Example 282], the IC50 was less than 10 µM.

As for `CCOC(=O)c1cc2c(-c3ccc(OC)cc3)nc(N)nc2s1` [Example 12], the half-maximal inhibitory concentration (IC50) was greater than 10 µM.

For the molecule `C=CCc1ccc(-c2nc(N)nc3sc(C(=O)NCC)cc23)c(C)c1` [Example 176], the 50% inhibitory concentration (IC50) was less than 10 µM.

Turning to `Nc1nc(-c2ccc(Cl)cc2Cl)c2cc(C(=O)Nc3ccc(S(N)(=O)=O)cc3)sc2n1` [Example 108], the IC50 was less than 10 µM.

As for `CCOC(=O)c1cc2c(-c3ccc(C)cn3)nc(N)nc2s1` [Example 114], the IC50 was less than 10 µM.

With `Nc1nc(-c2ccc(Cl)cc2Cl)c2cc(C(=O)NCCO)sc2n1` [Example 136], the IC50 was less than 10 µM.

Consider `CCOC(=O)c1cc2c(-c3cc(C=O)c(C)cc3C)nc(N)nc2s1` [Example 174], for which the half-maximal inhibitory concentration (IC50) is less than 10 µM.

For the molecule `CCOC(=O)c1cc2c(-c3ccccc3C)nc(N)nc2s1` [Example 15], the half-maximal inhibitory concentration (IC50) is less than 10 µM.

On to `CNC(=O)c1cc2c(NCc3ccccc3)nc(N)nc2s1` [Example 65], for which the IC50 was greater than 10 µM.

For `CCCCOc1ccc(-c2nc(N)nc3sc(C(=O)OCC)cc23)c(C)c1` [Example 186], the IC50 was greater than 10 µM.

Take `CCNC(=O)c1cc2c(-c3cc(CNCc4cccs4)ccc3C)nc(N)nc2s1` [Example 201]: the half-maximal inhibitory concentration (IC50) is less than 10 µM.

For the molecule `CCOC(=O)c1cc2c(-c3ccc(OCCN(CC)CC)cc3C)nc(N)nc2s1` [Example 190], the IC50 was greater than 10 µM.

On to `CCOC(=O)c1sc2nc(N)nc(-c3ccccc3)c2c1Br` [Example 99], for which the half-maximal inhibitory concentration (IC50) was greater than 10 µM.

`C=Cc1ccc(-c2nc(N)nc3sc(C(=O)OCC)cc23)c(C)c1` [Example 168]: the IC50 is less than 10 µM.

In the case of `CCNC(=O)c1cc2c(-c3cc(OCc4ccccc4)c(Cl)cc3Cl)nc(N)nc2s1` [Example 241], the IC50 was less than 10 µM.

Turning to `CCNC(=O)c1cc2c(-c3cc(OCc4cc(=O)[nH]c(=O)[nH]4)c(Cl)cc3Cl)nc(N)nc2s1` [Example 268], the IC50 was less than 10 µM.

For `CCOC(=O)c1cc2c(/C=C/c3ccc(C(F)(F)F)cc3)nc(N)nc2s1` [Example 288], the IC50 was less than 10 µM.

Regarding `CCOC(=O)c1cc2c(C(=O)c3ccc(Cl)c(Cl)c3)nc(N)nc2s1` [Example 309], the 50% inhibitory concentration (IC50) is less than 10 µM.

Consider `Nc1nc(-c2ccc(Cl)cc2Cl)c2cc(C(=O)N3CCC(N)C3)sc2n1` (stereo not shown) [Example 159], for which the IC50 is less than 10 µM.

Turning to `CCOC(=O)c1cc2c(-c3ccccc3CC)nc(N)nc2s1` [Example 76], the concentration for half-maximal inhibition (IC50) was greater than 10 µM.

For `CCNC(=O)c1cc2c(-c3cc(CNCCc4ccccc4)ccc3C)nc(N)nc2s1` [Example 215], the IC50 was less than 10 µM.

For the molecule `C=C(c1ccccc1)c1nc(N)nc2sc(C(=O)NCC)cc12` [Example 283], the IC50 was less than 10 µM.

Take `CCNC(=O)c1cc2c(-c3ccc(C#N)cc3Cl)nc(N)nc2s1` [Example 172]: the IC50 was less than 10 µM.

In the case of `Nc1nc(-c2ccc(Cl)cc2Cl)c2cc(C(=O)NCC(O)CO)sc2n1` (stereo not shown) [Example 128], the IC50 is less than 10 µM.

Take `CCOC(=O)c1cc2c(C(=O)c3ccc(OC)cc3)nc(N)nc2s1` [Example 297]: the half-inhibitory concentration (IC50) was less than 10 µM.

On to `CCOC(=O)c1cc2c(-c3ccccc3Br)nc(N)nc2s1` [Example 97], for which the IC50 was less than 10 µM.

`CCOC(=O)c1cc2c(-c3ccc(F)cc3)nc(N)nc2s1` [Example 10]: the IC50 was greater than 10 µM.

Regarding `CCCCNCc1ccc(C)c(-c2nc(N)nc3sc(C(=O)NCC)cc23)c1` [Example 213], the IC50 was less than 10 µM.

As for `CCOC(=O)c1cc2c(-c3cc(C(=O)OC)ccc3C)nc(N)nc2s1` [Example 179], the IC50 is less than 10 µM.

As for `CCOC(=O)c1cc2c(-c3ccc(OCC)cc3Cl)nc(N)nc2s1` [Example 78], the concentration for half-maximal inhibition (IC50) was less than 10 µM.

As for `CCNC(=O)c1cc2c(OCc3ccccc3)nc(N)nc2s1` [Example 294], the IC50 was greater than 10 µM.

`CCOC(=O)c1cc2c(C(=O)c3cccc(C)c3C)nc(N)nc2s1` [Example 307]: the IC50 is less than 10 µM.

In the case of `C[C@@H](NC(=O)c1cc2c(-c3ccc(Cl)cc3Cl)nc(N)nc2s1)c1ccccc1` [Example 138], the IC50 was less than 10 µM.

As to `CCOC(=O)c1cc2c(C(=O)c3ccccc3C)nc(N)nc2s1` [Example 311], the IC50 is less than 10 µM.

Take `CCOC(=O)CSc1nc(N)nc2sc(C(=O)OCC)cc12` [Example 20]: the IC50 is greater than 10 µM.

Regarding `Nc1nc(-c2ccccc2)c2cc(C(=O)Nc3ccccc3)sc2n1` [Example 60], the IC50 was greater than 10 µM.

For `CCNC(=O)c1cc2c(-c3cc(OCc4ccccn4)c(Cl)cc3Cl)nc(N)nc2s1` [Example 261], the half-maximal inhibitory concentration (IC50) is less than 10 µM.

In the case of `CCOC(=O)c1cc2c(-c3ccsc3)nc(N)nc2s1` [Example 18], the IC50 is greater than 10 µM.

`Nc1nc(-c2ccc(Cl)cc2Cl)c2cc(C(=O)NCc3ccccn3)sc2n1` [Example 154]: the IC50 was less than 10 µM.

Take `CCOC(=O)c1cc2c(-c3ccc(CC)cc3Cl)nc(N)nc2s1` [Example 175]: the IC50 was less than 10 µM.

On to `CCOC(=O)c1cc2c(C(=O)c3ccc(C)c(C)c3)nc(N)nc2s1` [Example 306], for which the 50% inhibitory concentration (IC50) is less than 10 µM.

As for `CCOC(=O)c1cc2c(-c3ccc(C#N)cc3C)nc(N)nc2s1` [Example 32], the IC50 was less than 10 µM.

On to `CCNC(=O)c1cc2c(-c3cc(CNC4CCCC4)ccc3C)nc(N)nc2s1` [Example 199], for which the IC50 is less than 10 µM.

`CCOC(=O)c1cc2c(-c3ccc(Cl)cc3C)nc(N)nc2s1` [Example 3]: the concentration for half-maximal inhibition (IC50) is less than 10 µM.

As to `Nc1nc(-c2ccc(Cl)cc2Cl)c2cc(C(=O)NCCS(N)(=O)=O)sc2n1` [Example 130], the IC50 was less than 10 µM.

Consider `CCOC(=O)c1cc2c(CCc3ccccc3)nc(N)nc2s1` [Example 275, 2-Amino-4-phenethyl-thieno[2,3-d]pyrimidine-6-carboxylic acid ethyl ester], for which the IC50 was less than 10 µM.

On to `CC=Cc1nc(N)nc2sc(C(=O)OCC)cc12` [Example 291], for which the 50% inhibitory concentration (IC50) was greater than 10 µM.

Usually IC50 stands for the concentration needed to halve the response being measured.
